Experimental findings from patent publication US20250223303A1, “TRICYCLIC BORONIC ACID DERIVATIVE, AND PREPARATION METHOD THEREFOR AND APPLICATION THEREOF” (priority 2021, published 2025) are described below.

Structures are written as SMILES.

Type in all cases: biochemical
In one experiment the target is T1, IMP-1 (Serratia marcescens, UniProt P52699).
T1 construct: purchased GenScript Biotech Co., Ltd
The experiment can be described thus: Enzyme activity test (FC5 fluorescent substrate), IMP-1. The note with it: enzyme 20 pM, substrate FC5 15 μM. Here is the method: (§1) Compound stock solution: the compound was prepared as a 50 mM DMSO stock solution. […] After aliquoting, the compound stock solutions were stored at −20° C.
(§2) Preparation and storage of antibiotic substrate stock solution: antibiotic fluorescent substrate FC5 was synthesized internally and prepared as a 2 mM stock solution, which was stored at −20° C. after aliquoting.
(§3) Storage of β-lactamases: each […] was synthesized by GenScript Biotech Co., Ltd., and stored at −80° C. after aliquoting to avoid repeated freezing and thawing.
(§4) Preparation of enzyme activity reaction buffer: SBL buffer: PBS pH 7.4, 0.01% (v/v) Triton X-100; MBL buffer: 50 Mm HEPES in PBS pH 7.2, 1 μM ZnSO4, 1 μg/mL BSA, 0.010% v/v Triton X-100
(§5) a) The compound to be tested and buffer were taken out and warmed to room temperature.
(§6) b) Each compound was diluted with DMSO and buffer to the initial experimental concentration (Table 2), and then the compound was diluted 3-fold for a total of 10 concentrations.
(§7) c) Diluted compounds were added to wells 1 to 20 of a 384-well black plate at 2 replicate wells per concentration, 5 μL per well. 5 µL of DMSO was added to wells 21 to 24.
(§8) d) Each enzyme was diluted to the experimental concentration (Table 2) in SBL and MBL buffers, and finally 35 μL/well was added, with a total of 22 wells. 35 μL buffer was added to wells 23 to 24. Wells 21 to well 22 served as the maximum test values (Max), while wells 23 to 24 were designated as the minimum test values (Min).
(§9) e) The 384-well plate was centrifuged quickly and incubated for 10 minutes at room temperature.
(§10) f) The antibiotic substrate FC5 was diluted in buffer to the experimental concentration of each enzyme (Table 2).
(§11) g) The incubated 384-well plate was taken out and FC-5 was added to wells […]. The 384-well plate was centrifuged rapidly and promptly transferred to a microplate reader for reading.
(§12) h) The fluorescence intensity was measured at 355 nm excitation light/460 nm emission light in the microplate reader, and the fluorescence intensity was measured every three minutes for a total of 10 measurements.
(§13) Initial velocity of enzyme reaction V: Subtract the background reading (Min wells) without enzyme from each fluorescence intensity reading, and then perform on a linear regression analysis on each compound concentration group. The slope is the initial velocity of enzyme reaction (V) at each compound concentration.
(§14) Dose-effect curve and IC50 calculation of compounds: The initial velocity of enzyme reaction under the effect of each concentration of compounds was subjected to nonlinear regression fitting. The IC50 (half-maximal inhibitory concentration) of each compound was calculated using the formula […] (Vi: the initial velocity of enzyme reaction at each compound concentration; V0: initial velocity of enzyme reaction without the compound (Max wells). The software used was Graphpad prism 8.

For a further experiment, the target named is T2, VIM-1 (Pseudomonas aeruginosa, UniProt A0A0F7KYQ8).
T2 construct: purchased GenScript Biotech Co., Ltd
Kind of experiment: Enzyme activity test (FC5 fluorescent substrate), VIM-1. The settings on record: enzyme 70 pM, substrate FC5 10 μM. Here is the method:
as §1, §2, §3, §4, §5, §6, §7, §8, §9, §10, §11, §12, §13, §14

Another experiment deals with T3, VIM-2 (Escherichia coli, UniProt Q5U7L7).
T3 construct: purchased GenScript Biotech Co., Ltd
The experiment can be described thus: Enzyme activity test (FC5 fluorescent substrate), VIM-2. The note with it: enzyme 25 pM, substrate FC5 20 μM. Here is the method:
as §1, §2, §3, §4, §5, §6, §7, §8, §9, §10, §11, §12, §13, §14

The target in a further experiment is T4, NDM-1 (Klebsiella pneumoniae, UniProt C7C422).
T4 construct: purchased GenScript Biotech Co., Ltd
T4 sequence (C7C422 29-270 limits assumed): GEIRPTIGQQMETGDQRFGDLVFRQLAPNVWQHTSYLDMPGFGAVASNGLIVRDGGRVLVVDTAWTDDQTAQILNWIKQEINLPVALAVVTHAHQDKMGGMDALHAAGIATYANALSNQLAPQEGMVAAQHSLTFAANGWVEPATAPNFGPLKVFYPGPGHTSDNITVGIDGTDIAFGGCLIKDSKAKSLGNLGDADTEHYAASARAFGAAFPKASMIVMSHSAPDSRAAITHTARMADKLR
The experiment can be described thus: Enzyme activity test (FC5 fluorescent substrate), NDM-1. The note with it: enzyme 6 pM, substrate FC5 15 μM, MBL buffer. Here is the method: as §1, §2, §3, §4, §5, §6, §7, §8, §9, §10, §11, §12, §13, §14

Experiment [1] has as its system four classes of β-lactamase, A, B, C, and D. Kind of experiment: Enzyme activity test, summary by β-lactamase class. Here is the method: as §1, §2, §3, §4, §5, §6, §7
d) Each enzyme was diluted to the experimental concentration (Table 2) in SBL and MBL buffers, and finally 35 μL/well was added, with a total of 22 wells. 35 μL buffer was added to wells 23 to 24. […]
as §11, §12
(§15) Initial velocity of enzyme reaction V: Subtract the background reading (Min wells) without enzyme from each fluorescence intensity reading, and then perform on a linear regression analysis on each compound concentration group. […]

Another experiment addresses T5, OXA-10 (Pseudomonas aeruginosa, UniProt P14489).
T5 construct: purchased GenScript Biotech Co., Ltd
The experiment can be described thus: Enzyme activity test (FC5 fluorescent substrate), OXA-10. The note with it: enzyme 350 pM, substrate FC5 50 μM. Here is the method: as §1, §2, §3, §4, §5, §6, §7, §8, §9, §10, §11, §12, §13, §14

The next experiment has as its target T6, KPC-2 (Klebsiella pneumoniae, UniProt Q9F663).
T6 construct: purchased GenScript Biotech Co., Ltd
Kind of experiment: Enzyme activity test (FC5 fluorescent substrate), KPC-2. The note with it: enzyme 45 pM, substrate FC5 25 μM. Here is the method: as §1, §2, §3, §4, §5, §6, §7, §8, §9, §10, §11, §12, §13, §14

The target in another experiment is NDM-5 (Klebsiella pneumoniae, UniProt C7C422, M154L/V88L). The experiment can be described thus: Enzyme activity test (FC5 fluorescent substrate), NDM-5. Here is the method:
as §1, §2, §3, §4, §5, §6, §7, §8
e) The 384-well plate was centrifuged quickly and incubated for 10 minutes at room temperature. […]
as §11, §12, §15, §14

A further experiment deals with Ampc (UniProt P24735). The experiment can be described thus: Enzyme activity test (FC5 fluorescent substrate), AmpC. The settings on record: enzyme 25 pM, substrate FC5 15 μM. Here is the method:
as §1, §2, §3, §4, §5, §6, §7, §8, §9, §10, §11, §12, §13, §14

The next experiment deals with T7, CTX-M-15 (Escherichia coli, UniProt Q9EXV5).
T7 construct: purchased GenScript Biotech Co., Ltd
T7 sequence (Q9EXV5 entry or part of it): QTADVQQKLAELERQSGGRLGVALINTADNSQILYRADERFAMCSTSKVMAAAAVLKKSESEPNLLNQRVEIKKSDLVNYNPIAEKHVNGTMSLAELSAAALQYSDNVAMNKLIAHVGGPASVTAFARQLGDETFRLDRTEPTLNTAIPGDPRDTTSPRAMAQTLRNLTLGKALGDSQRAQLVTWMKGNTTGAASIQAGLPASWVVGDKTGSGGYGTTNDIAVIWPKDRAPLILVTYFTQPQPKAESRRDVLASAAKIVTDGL
Kind of experiment: Enzyme activity test (FC5 fluorescent substrate), CTX-M-15. The settings on record: enzyme 45 pM, substrate FC5 50 μM. Here is the method:
as §1, §2, §3, §4, §5, §6, §7, §8, §9, §10, §11, §12, §13, §14

Another experiment deals with T8, OXA-48 (Klebsiella pneumoniae, UniProt Q6XEC0).
T8 construct: purchased GenScript Biotech Co., Ltd
T8 sequence (Q6XEC0 23-265 limits assumed): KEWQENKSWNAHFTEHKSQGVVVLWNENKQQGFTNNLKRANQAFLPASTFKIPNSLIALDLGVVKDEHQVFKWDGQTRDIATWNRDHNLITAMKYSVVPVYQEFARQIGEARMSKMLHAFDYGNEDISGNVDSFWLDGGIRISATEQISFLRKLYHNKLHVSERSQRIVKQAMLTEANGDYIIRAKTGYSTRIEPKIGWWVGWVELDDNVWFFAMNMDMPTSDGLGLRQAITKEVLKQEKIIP
The experiment can be described thus: Enzyme activity test (FC5 fluorescent substrate), OXA-48. The note with it: enzyme 650 pM, substrate FC5 125 μM. Here is the method: as §1, §2, §3, §4, §5, §6, §7, §8, §9, §10, §11, §12, §13, §14

The target of a further experiment is T9, OXA-23 (Acinetobacter baumannii, UniProt Q9L4P2).
T9 construct: purchased GenScript Biotech Co., Ltd
T9 sequence (Q9L4P2 18-273): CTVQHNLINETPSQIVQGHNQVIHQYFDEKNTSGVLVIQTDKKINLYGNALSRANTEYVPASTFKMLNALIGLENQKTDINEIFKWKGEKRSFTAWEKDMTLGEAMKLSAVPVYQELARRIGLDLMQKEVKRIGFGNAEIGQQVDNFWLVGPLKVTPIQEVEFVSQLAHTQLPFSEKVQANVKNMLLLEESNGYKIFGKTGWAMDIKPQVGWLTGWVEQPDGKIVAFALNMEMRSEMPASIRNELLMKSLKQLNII
The experiment can be described thus: Enzyme activity test (FC5 fluorescent substrate), OXA-23. The settings on record: enzyme 650 pM, substrate FC5 50 μM. Here is the method:
as §1, §2, §3, §4, §5, §6, §7, §8, §9, §10, §11, §12, §13, §14

T6 sequence (Q9F663 25-293 limits assumed): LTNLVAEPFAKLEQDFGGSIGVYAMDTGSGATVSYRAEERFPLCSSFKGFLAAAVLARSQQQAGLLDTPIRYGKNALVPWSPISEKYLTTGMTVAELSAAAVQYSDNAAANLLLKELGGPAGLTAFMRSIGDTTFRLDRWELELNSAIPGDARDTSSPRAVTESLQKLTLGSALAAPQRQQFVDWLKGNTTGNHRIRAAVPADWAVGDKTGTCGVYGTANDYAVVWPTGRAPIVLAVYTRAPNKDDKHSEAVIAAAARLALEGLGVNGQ
NDM-5, sequence (C7C422 29-270 V88L/M154L): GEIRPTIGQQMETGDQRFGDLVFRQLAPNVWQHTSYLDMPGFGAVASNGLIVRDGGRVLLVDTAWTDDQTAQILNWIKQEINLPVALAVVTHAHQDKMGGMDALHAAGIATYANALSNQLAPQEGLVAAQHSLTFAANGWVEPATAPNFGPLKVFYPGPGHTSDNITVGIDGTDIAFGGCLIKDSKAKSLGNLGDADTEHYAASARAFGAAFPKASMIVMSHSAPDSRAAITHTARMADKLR
T1 sequence (P52699 19-246 limits assumed): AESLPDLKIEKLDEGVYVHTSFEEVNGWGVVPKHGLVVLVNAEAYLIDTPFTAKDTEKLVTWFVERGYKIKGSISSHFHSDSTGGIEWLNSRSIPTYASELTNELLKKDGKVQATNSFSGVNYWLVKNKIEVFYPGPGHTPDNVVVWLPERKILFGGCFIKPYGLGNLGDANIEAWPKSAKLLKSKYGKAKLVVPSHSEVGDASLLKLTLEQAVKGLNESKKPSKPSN
T5 sequence (P14489 20-266): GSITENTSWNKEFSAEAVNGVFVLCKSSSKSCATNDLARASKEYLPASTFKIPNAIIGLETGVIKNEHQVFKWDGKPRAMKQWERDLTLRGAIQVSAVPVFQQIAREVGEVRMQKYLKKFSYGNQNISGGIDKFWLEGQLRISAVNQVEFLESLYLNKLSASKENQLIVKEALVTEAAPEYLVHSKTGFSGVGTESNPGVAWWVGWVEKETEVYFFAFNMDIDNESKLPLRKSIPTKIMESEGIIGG

For `NC(=O)[C@@H]1CC[C@@H]2CN1C(=O)N2OS(=O)(=O)O` [Avibactam, reference compound], the IC50 (as a rule, the concentration that inhibits the measured activity by half) on IMP-1 was above 10000 nM; against VIM-1, above 10000 nM; at VIM-2, above 10000 nM; on NDM-1 it was above 10000 nM; at OXA-10, 5760 nM. Besides, the “activity against class A and class C serine β-lactamases (SBL)” value in experiment [1] (class A and class C SBL) is given as “good activity”. Moreover, in [1] (class B MBL), the “inhibitory effect on class B metal-zinc ion β-lactamase (MBL)” value is given as “no inhibitory effect”. In addition, in [1] (class D SBL), the “inhibitory activity against the class D serine β-lactamase” value is given as “low inhibitory activity”.
Consider `CC(C)Sc1ccc2c(c1C(=O)O)OB(O)[C@@H]1C[C@H]21` [Compound 2], for which the 50% inhibitory concentration (IC50) is 3.3 nM against KPC-2; 2.9 nM at NDM-5; 42.7 nM against Ampc; 3.2 nM on CTX-M-15; below 5.1 nM against IMP-1; 0.1 nM against VIM-1. In addition, the concentration for half-maximal inhibition (IC50) against VIM-2 was 0.1 nM; at NDM-1, 1.6 nM; against OXA-48 it was 0.4 nM; on OXA-23 it was 0.6 nM; on OXA-10 it was 6.8 nM.
Regarding `CSc1ccc2c(c1C(=O)O)OB(O)[C@@H]1C[C@H]21` [Compound 1], the IC50 against KPC-2 is 1.2 nM; on NDM-5, 15.3 nM; against Ampc, 17.2 nM; against CTX-M-15 it was 1.3 nM; against IMP-1, below 5.1 nM; against VIM-1 it was 1.5 nM. For the same compound, the IC50 was determined as 0.1 nM against VIM-2; 13.1 nM on NDM-1; 0.2 nM against OXA-48; 0.8 nM on OXA-23; 10 nM on OXA-10.
Consider `O=C(O)c1c(S[C@H]2CCOC2)ccc2c1OB(O)[C@@H]1C[C@H]21` [Compound 4], for which the IC50 was 1.5 nM against KPC-2; 2.3 nM against NDM-5; 33.8 nM against Ampc; 1.1 nM against CTX-M-15; below 5.1 nM on IMP-1; below 0.05 nM on VIM-1. The half-maximal inhibitory concentration (IC50) against VIM-2 is below 0.05 nM; against NDM-1 it was 1.9 nM; at OXA-48, 0.07 nM; on OXA-23, 1.3 nM; on OXA-10 it was 3.7 nM.
On to `CN1CC(CCSc2ccc3c(c2C(=O)O)OB(O)[C@@H]2C[C@H]32)C1` [Compound 24-a], for which the half-maximal inhibitory concentration (IC50) against KPC-2 was 3.4 nM; on NDM-5, 14.8 nM; on Ampc it was 63.8 nM; against CTX-M-15, 3.1 nM; against IMP-1, below 5.1 nM; on VIM-1 it was 7.7 nM. The 50% inhibitory concentration (IC50) worked out at 6 nM against VIM-2; 19.7 nM on NDM-1; 1 nM on OXA-48; 1.4 nM against OXA-23; 39.4 nM on OXA-10.
